In assay [1] the test system is primary human or immortalized mouse fibroblasts. Briefly: Oxygen consumption of fibroblast suspensions (Clark electrode). It is filed as cell-based. As to the method:
FIG. 1. Hypoxia inhibits mitochondrial oxygen consumption. A: Oxygen concentration curves generated using a Clark electrode for fibroblast suspensions from cultures exposed to normoxia or hypoxia for 24 h. Arrows indicate addition of the mitochondrial uncoupler CCCP and cytochrome poison cyanide. The slope of the curve is a measure of the rate of oxygen consumption. B: Average oxygen consumption rates in normal human fibroblasts and immortalized murine fibroblasts cultured in normoxia or 0.5% O2 for 24 h. C: Fraction of total oxygen consumption due to mitochondrial versus non-mitochondrial consumption in wild-type murine fibroblasts. Mitochondrial consumption was determined using 1 ug/ml of the cell permeable complex 3 inhibitor Antimycin A. D: Change in oxygen consumption in RKO cells after exposure to the indicated time in 0.5% O2, and time to recovery in normoxia following 24 h hypoxia. For all graphs, the error bars represent the standard error of the mean.
Oxygen consumption measurements. […] Oxygen consumption was measured in a 0.5 ml volume using an Oxytherm electrode unit (Hansatech, Norfolk, UK). […]
HIF-1 downregulates mitochondrial oxygen consumption. Having identified several putative HIF-1 responsive gene products that had the potential to regulate mitochondrial function, we then directly measured mitochondrial oxygen consumption in cells exposed to long term hypoxia. […]

For another assay, the system named is HIFwt and HIFko MEFs. Briefly: Tirapazamine toxicity by colony formation (clonogenic viability). In kind it is cell-based, mouse. As to the method:
FIG. 6. HIF dependent decrease in oxygen consumption raises intracellular oxygen concentration, protects when oxygen is limiting, and decreases sensitivity to tirapazamine in vitro. A: Pimonidazole was used to determine the intracellular oxygen concentration of cells in culture. HIFwt and HIFko MEFs were grown at high density and exposed to 2% O2 or anoxia for 24 h in glass dishes. For the last 4 hours of treatment, cells were exposed to 60 μg/ml pimonidazole. Pimonidazole binding was quantitated by flow cytometry after binding of an FITC conjugated anti-pimo mAb. Results are representative of two independent experiments. B: HIF1α reduces oxygen consumption and protects cells when total oxygen is limited. HIFwt and HIFko cells were plated at high density and sealed in aluminum jigs at <0.02% oxygen. At the indicated times, cells were harvested and dead cells were quantitated by trypan blue exclusion. […] C. PDK1 is responsible for HIF-1's adaptive response when oxygen is limiting. A similar jig experiment was performed to measure survival in the parental RKO, the RKO ShRNAHIF1α and the RKOShPDK1 cells. Cell death by trypan blue uptake was measured 48 h after the jigs were sealed. D: HIF status alters sensitivity to TPZ in vitro. HIFwt and HIFko MEFs were grown at high density in glass dishes and exposed to 21%, 2%, and <0.01% O2 conditions for 18 hours in the presence of varying concentrations of Tirapazamine. After exposure, cells were harvested, and replated under normoxia to determine clonogenic viability. Survival is calculated relative to the plating efficiency of cells exposed to 0 μM TPZ for each oxygen concentration. Error bars represent the standard error of the mean. E: Cell density alters sensitivity to TPZ. HIFwt and HIFko MEFs were grown at varying cell densities in glass dishes and exposed to 2% O2 in the presence of 10 μM TPZ for 24 h. After the exposure, survival was determined as described in […].
Cell lines and cell culture. Primary human fibroblasts have been described previously (Denko et al., 2003; Kim et al., 1997) and RKO human colon carcinoma cells were obtained from the American Type Culture Collection (ATCC, Manassas, Va.). RCC4, RCC4/VHL, and RCC4/Y98H human renal cell carcinoma cell lines have also been described previously (Chan et al., 2005). Wildtype and HIF-1α knockout mouse embryo fibroblasts (MEFs) were a gift from Dr. R Johnson (University of California, San Diego). All cells were grown in vitro as monolayers in Dulbeco's Modified Eagle's Media (DMEM) supplemented with 10% fetal bovine serum (FBS). For treatment with moderate hypoxia, cell culture dishes were placed into an Invivo2 humidified hypoxia workstation (Ruskinn Technologies, Bridgend, UK) at the indicated oxygen concentrations. Severe hypoxia was generated in an anaerobic workstation with a palladium catalyst (Sheldon Co., Cornelius, Oreg.). Tirapazamine toxicity was measured in cells plated overnight at the indicated density in glass dishes. The next day, fresh media was added containing the indicated concentration of TPZ, and the cells placed in the indicated oxygen environment. 24 hours later, the cells were trypsinized, counted, and plated for colony formation in normoxia.
Because HIF-1 can help cells adapt to hypoxia and maintain some intracellular oxygen level, it may also protect tumor cells from killing by the hypoxic cytotoxin tirapazamine (TPZ). TPZ toxicity is very oxygen dependent, especially at oxygen levels between 1-4% (Koch, 1993). We therefore tested the relative sensitivity of the HIFwt and HIFko cells to TPZ killing in high density cultures (FIG. 6d). We exposed the cells to the indicated concentrations of drug and oxygen concentrations overnight. The cells were then harvested and replated to determine reproductive viability by colony formation. […] The lower oxygen level is significant enough to dramatically sensitize these cells to killing by TPZ.

Another assay deals with experimental tumors. The settings on record: literature reference (28); cited from earlier work.
The test system of assay [2] is RKO and RKOShHIF1α 5×HRE-luciferase reporter tumors. Briefly: Bioluminescent imaging of HRE-luciferase reporter tumors in vivo. On the set-up: species or system mouse. The following applies: twelve hours after single dose 60 mg/kg tirapazamine ip. The method, then: FIG. 8. Increasing oxygen consumption by inhibition of PDK activity increases tumor hypoxia. (a) Luciferase activity of wildtype and HIF1α knockdown RKO cells stably transfected with a HIF1 responsive luciferase reporter gene. Cells were exposed to 0.5% O2 for 24 hours in triplicate. Luminescence is normalized to normoxic HIF wildtype cells. (b) Luciferase activity of wildtype RKO HIF1 reporter cells exposed to 0.5% O2 for 24 hours in the presence of increasing concentrations of echinomycin. Data are normalized to the increase in signal observed in the absence of drug. (c) Bioluminescent imaging in vivo. Images show a representative animal bearing an RKO reporter tumor on the left flank and an RKOShHIF1α reporter tumor on the right flank as a function of time after ip injection of 50 mg/kg DCA. […] (d) Quantification of in vivo bioluminescence. […] The data represent the mean of three independent experiments, each comprising 5 RKO and 5 RKOShHIF1α reporter tumors.
FIG. 14. Luciferase activity of hypoxia reporter tumors in response to tirapazamine. Mice bearing 500 mm^3 RKO HRE-luciferase tumors were imaged using an IVIS100 bioluminescent imaging system, and the signal from each tumor was quantified. […]
Bioluminescent imaging. […] After 10 min, bioluminescence was measured in a Xenogen IVIS100 imaging system (Xenogen). Data was quantified by measuring total photons/s from uniform regions of interest. […]

In the case of `N#CC(C#N)=NNc1cccc(Cl)c1` [CCCP, carbonyl cyanide 3-chloro phenylhydrazone], the “effect on total cellular oxygen consumption” value in assay [1] (fibroblast suspensions from normoxic and hypoxic (24 h) cultures, mitochondrial uncoupler) is on record as “stimulated”. Further, in assay [1] (hypoxia treated cells), the “effect on oxygen consumption in hypoxia treated cells” value is “increase oxygen consumption”.

As for `Nc1n[n+]([O-])c2ccccc2[n+]1[O-]` [tirapazamine], the “cell-density effect on TPZ toxicity in HIFko cells” value with HIFwt and HIFko MEFs (2% O2, 10 μM TPZ, 24 h, HIFko) is listed as “much more pronounced”. Besides, the “cell-density effect on TPZ toxicity in HIFwt cells” value with HIFwt and HIFko MEFs (2% O2, 10 μM TPZ, 24 h, HIFwt, highest density cultures) is on record as “some increased toxicity”. For the same compound, in the assay with HIFwt and HIFko MEFs (2% O2, 10 μM TPZ, 24 h, varying cell densities), the “effect of increased cell density on TPZ toxicity” value was “increased TPZ toxicity”. In addition, the “sensitivity of HIF-null cells to the drug relative to wild type cells” value in the assay with HIFwt and HIFko MEFs (2% oxygen, high density cultures, overnight) is “significantly greater sensitivity”. Also, the “sensitivity to TPZ killing (colony formation), HIFwt vs HIFko” value in the assay with HIFwt and HIFko MEFs (21% oxygen, high density cultures, overnight) was “equally resistant”; in the assay on HIFwt and HIFko MEFs (anoxic conditions, high density cultures, overnight), “equally sensitive”. The “reduction of the hypoxic fraction of experimental tumors” value in the assay with experimental tumors was “greater than 10 fold”. Also, the “reduction of luciferase signal of HRE-reporter tumors” value in assay [2] was 90%.

The values are drawn from patent US20070212360A1, “Modulation of mitochondrial oxygen consumption for therapeutic purposes” (priority 2006, published 2007).
